We go through 26 molecules from patent publication US7160888B2, “[1,8]naphthyridin-2-ones and related compounds for the treatment of schizophrenia” (Warner Lambert Company LLC, priority 2003, dated 2007).

The experiment has as its target D2 receptor (Homo sapiens, UniProt P14416). Put plainly: [3H]Thymidine uptake assay for D2 intrinsic activity. Format: cell-based. The arrangement: Emax: dose or concentration left out as unconfirmed. The conditions noted are these: for Emax at 1 µM: test compound 1 μM, 1 μM Quinpirole = 100% intrinsic activity.

D2 receptor, sequence (P14416 whole entry): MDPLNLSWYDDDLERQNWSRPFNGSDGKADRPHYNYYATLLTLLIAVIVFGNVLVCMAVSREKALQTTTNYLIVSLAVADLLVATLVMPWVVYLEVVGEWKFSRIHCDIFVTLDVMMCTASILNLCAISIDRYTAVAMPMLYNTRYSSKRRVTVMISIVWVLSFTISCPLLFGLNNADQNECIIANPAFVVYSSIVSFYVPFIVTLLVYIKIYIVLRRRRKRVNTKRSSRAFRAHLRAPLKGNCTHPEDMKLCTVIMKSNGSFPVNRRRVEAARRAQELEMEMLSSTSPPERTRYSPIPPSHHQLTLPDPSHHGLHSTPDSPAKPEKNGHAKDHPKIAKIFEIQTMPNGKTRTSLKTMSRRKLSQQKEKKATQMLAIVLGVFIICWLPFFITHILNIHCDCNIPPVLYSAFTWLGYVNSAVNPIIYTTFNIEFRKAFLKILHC

`O=C1CCc2cnc(OCCCCN3CCN(c4cccc5c4OC(F)(F)O5)CC3)cc2N1` [Example H4′, 7-{4-[4-(2,2-Difluoro-benzo[1,3]dioxol-4-yl)-piperazin-1-yl]-butoxy}-3,4-dihydro-1H-[1,6]naphthyridin-2-one] had an Emax at 1 µM (Table 2) of 21%.
With `Cc1nc(OCCCCN2CCN(c3cccc4ccccc34)CC2)nc2[nH]c(=O)c(F)cc12` [Example H5, 6-Fluoro-4-methyl-2-[4-(4-naphthalen-1-yl-piperazin-1-yl)-butoxy]-8H-pyrido[2,3-d]pyrimidin-7-one], the Emax at 1 µM (Table 1) is 34%.
Under “Table 2”, `O=C1CCc2cnc(OCCCCN3CCN(c4cccc5c4OCCO5)CC3)cc2N1` [Example H5′, 7-{4-[4-(2,3-Dihydro-benzo[1,4]dioxin-5-yl)-piperazin-1-yl]-butoxy}-3,4-dihydro-1H-[1,6]naphthyridin-2-one] came in with an Emax at 1 µM of 14%.
In the case of `Cc1nc(OCCCCN2CCN(c3cccc(C(C)C)n3)CC2)nc2[nH]c(=O)ccc12` [Example H6, 2-{4-[4-(6-Isopropyl-pyridin-2-yl)-piperazin-1-yl]-butoxy}-4-methyl-8H-pyrido[2,3-d]pyrimidin-7-one], the Emax at 1 µM (Table 1) is 42%.
For `O=c1ccc2cnc(OCCCCN3CCN(c4cccc5c4OCC5)CC3)cc2[nH]1` [Example H6′, 7-{4-[4-(2,3-Dihydro-benzofuran-7-yl)-piperazin-1-yl]-butoxy}-1H-[1,6]naphthyridin-2-one], the Emax at 1 µM (Table 2) amounted to 21%.
Where the note is “Table 1”, `CCc1cccc(N2CCN(CCCCOc3nc(C)c4ccc(=O)[nH]c4n3)CC2)n1` [Example H7, 2-{4-[4-(6-Ethyl-pyridin-2-yl)-piperazin-1-yl]-butoxy}-4-methyl-8H-pyrido[2,3-d]pyrimidin-7-one] yielded an Emax at 1 µM of 46%.
On to `O=c1ccc2cnc(OCCCCN3CCN(c4cccc5c4OCCO5)CC3)cc2[nH]1` [Example H7′, 7-{4-[4-(2,3-Dihydro-benzo[1,4]dioxin-5-yl)-piperazin-1-yl]-butoxy}-1H-[1,6]naphthyridin-2-one], for which the Emax at 1 µM (Table 2) stood at 17%.
The molecule `O=c1ccc2cnc(OCCCCN3CCN(c4cccc5c4OCCC5)CC3)cc2[nH]1` [Example H8′, 7-[4-(4-Chroman-8-yl-piperazin-1-yl)-butoxy]-1H-[1,6]naphthyridin-2-one] registered an Emax at 1 µM (Table 2) of 32%.
The molecule `O=c1ccc2cnc(OCCCCN3CCN(c4cccc5c4OC(F)(F)O5)CC3)cc2[nH]1` [Example H9′, 7-{4-[4-(2,2-Difluoro-benzo[1,3]dioxol-4-yl)-piperazin-1-yl]-butoxy}-1H-[1,6]naphthyridin-2-one] gave an Emax at 1 µM (Table 2) of 31%.
As to `Cc1nc(OCCCCN2CCN(c3cccc4ccc(F)cc34)CC2)nc2[nH]c(=O)ccc12` [Example H10, 2-{4-[4-(7-Fluoro-naphthalen-1-yl)-piperazin-1-yl]-butoxy}-4-methyl-8H-pyrido[2,3-d]pyrimidin-7-one], the Emax at 1 µM (Table 1) worked out at 44%.
On to `COc1ccc2cccc(N3CCN(CCCCOc4nc(C)c5ccc(=O)[nH]c5n4)CC3)c2c1` [Example H11, 2-{4-[4-(7-Methoxy-naphthalen-1-yl)-piperazin-1-yl]-butoxy}-4-methyl-8H-pyrido[2,3-d]pyrimidin-7-one], for which the Emax at 1 µM (Table 1) amounted to 23%.
The same measure, in the same setting: the figure for `Cc1nc(OCCCCN2CCN(c3cccc4ccccc34)CC2)nc2[nH]c(=O)ccc12` [Example H12, 4-Methyl-2-[4-(4-naphthalen-1-yl-piperazin-1-yl)-butoxy]-8H-pyrido[2,3-d]pyrimidin-7-one] is 34%; for `Cc1nc(OCCCCN2CCN(c3cccc4ccc(F)cc34)CC2)nc2c1ccc(=O)n2C` [Example H13, 2-{4-[4-(7-Fluoro-naphthalen-1-yl)-piperazin-1-yl]-butoxy}-4,8-dimethyl-8H-pyrido[2,3-d]pyrimidin-7-one] it is 36%; for `COc1ccc2cccc(N3CCN(CCCCOc4nc(C)c5ccc(=O)n(C)c5n4)CC3)c2c1` [Example H14, 2-{4-[4-(7-Methoxy-naphthalen-1-yl)-piperazin-1-yl]-butoxy}-4,8-dimethyl-8H-pyrido[2,3-d]pyrimidin-7-one] it is 33%.
On to `O=C1CCc2cnc(CCCCCN3CCN(c4cccc(Cl)c4Cl)CC3)cc2N1` [Example I1, 7-{5-[4-(2,3-Dichloro-phenyl)-piperazin-1-yl]-pentyl}-3,4-dihydro-1H-[1,6]naphthyridin-2-one], for which the Emax at 1 µM (Table 1) is 17%.
As for `O=C1CCc2cnc(OCCCCN3CCN(c4cccc5c4CCCC5)CC3)cc2N1` [Example I2, 7-{4-[4-(5,6,7,8-Tetrahydro-naphthalen-1-yl)-piperazin-1-yl]-butoxy}-3,4-dihydro-1H-[1,6]naphthyridin-2-one], for the setting “Table 1”, the Emax at 1 µM was 37%.
Still for that read-out and setting: in the case of `O=C1CCc2cnc(OCCCCN3CCN(c4cccc5ccccc45)CC3)cc2N1` [Example I3, 7-[4-(4-Naphthalen-1-yl-piperazin-1-yl)-butoxy]-3,4-dihydro-1H-[1,6]naphthyridin-2-one] it was 33%; in that of `O=C1CCc2cnc(OCCCCN3CCN(c4cccc5c4CCC5)CC3)cc2N1` [Example I5, 7-[4-(4-Indan-4-yl-piperazin-1-yl)-butoxy]-3,4-dihydro-1H-[1,6]naphthyridin-2-one], 23%.
As to `O=C1CCc2cnc(OCCCCN3CCN(c4cccc5ccc(F)cc45)CC3)cc2N1` [Example I6, 7-{4-[4-(7-Fluoro-naphthalen-1-yl)-piperazin-1-yl]-butoxy}-3,4-dihydro-1H-[1,6]naphthyridin-2-one], the Emax (read-out: D2 Intrinsic Activity (%)) was 24%.
`O=C1CCc2cnc(OCCCCN3CCN(c4cccc5ccccc45)CC3)c(Br)c2N1` [Example I7, 8-Bromo-7-[4-(4-naphthalen-1-yl-piperazin-1-yl)-butoxy]-3,4-dihydro-1H-[1,6]naphthyridin-2-one] registered an Emax at 1 µM (Table 1) of 37%.
On the same count and under the same terms, in the case of `O=C1CCc2cnc(OCCCCN3CCN(c4cccc(Cl)c4Cl)CC3)c(Br)c2N1` [Example I8, 8-Bromo-7-{4-[4-(2,3-dichloro-phenyl)-piperazin-1-yl]-butoxy}-3,4-dihydro-1H-[1,6]naphthyridin-2-one] it was 25%; in that of `O=C1CCc2cnc(OCCCCN3CCN(c4cccc(Cl)c4Cl)CC3)c(Cl)c2N1` [Example I9, 8-Chloro-7-{4-[4-(2,3-dichloro-phenyl)-piperazin-1-yl]-butoxy}-3,4-dihydro-1H-[1,6]naphthyridin-2-one], 19%; in that of `O=C1CCc2cnc(OCCCCN3CCN(c4cccc5ccccc45)CC3)c(Cl)c2N1` [Example I10, 8-Chloro-7-[4-(4-naphthalen-1-yl-piperazin-1-yl)-butoxy]-3,4-dihydro-1H-[1,6]naphthyridin-2-one], 21%.
On the same count and under the same terms, the figure for `COC(=O)c1c(OCCCCN2CCN(c3cccc4ccccc34)CC2)ncc2c1NC(=O)CC2` [Example I11, 7-[4-(4-Naphthalen-1-yl-piperazin-1-yl)-butoxy]-2-oxo-1,2,3,4-tetrahydro-[1,6]naphthyridine-8-carboxylic acid methyl ester] is 19%.
The same measure, in the same setting: the figure for `O=c1ccc2cnc(OCCCCN3CCN(c4cccc5c4CCCC5)CC3)cc2[nH]1` [Example I14, 7-{4-[4-(5,6,7,8-Tetrahydro-naphthalen-1-yl)-piperazin-1-yl]-butoxy}-1H-[1,6]naphthyridin-2-one] is 24%.
With `O=c1ccc2cnc(OCCCCN3CCN(c4cccc5c4CCC5)CC3)cc2[nH]1` [Example I15, 7-[4-(4-Indan-4-yl-piperazin-1-yl)-butoxy]-1H-[1,6]naphthyridin-2-one], the Emax at 1 µM (Table 1) is 20%.
